Laboratory results published in PMC2658647 (Annals of neurology, 2009).

Experiments:
iNOS = iNOS (Mus musculus, UniProt P29477); experiment: NOS inhibition, hemoglobin capture assay; format: biochemical; conditions: read-out: Ki iNOS; apparent Ki; recombinant enzyme; 10 µM L-arginine
blood pressure = conditions: cited from earlier work

SMILES | Ki (iNOS) | effect on blood pressure (blood pressure)
N=C(NCCC[C@H](N)C(=O)O)N[N+](=O)[O-] [L-NNA, L-N^ω-Nitroarginine] | 4.55 µM | –
COC(=O)[C@@H](N)CCCNC(=N)N[N+](=O)[O-] [L-N^ω-nitroarginine methyl ester] | – | sharp increases in blood pressure
